For test [1], the target named is Opioid receptors; mu & delta (Rattus norvegicus) (UniProt P33533+P33535). Briefly: Ratio of binding affinity against rat brain delta opioid receptor to that of mu opioid receptor.
Test [2] addresses Delta-type opioid receptor (Rattus norvegicus, UniProt P33533). Briefly: Binding affinity against rat brain opioid receptor delta 1 using [3H]DPDPE radioligand.
In a further test the target is Mu-type opioid receptor (Rattus norvegicus, UniProt P33535). Nature of the test: Binding affinity against rat brain Opioid receptor mu 1 using [3H]DAMGO radioligand.
Sequence of Mu-type opioid receptor (P33535 whole entry): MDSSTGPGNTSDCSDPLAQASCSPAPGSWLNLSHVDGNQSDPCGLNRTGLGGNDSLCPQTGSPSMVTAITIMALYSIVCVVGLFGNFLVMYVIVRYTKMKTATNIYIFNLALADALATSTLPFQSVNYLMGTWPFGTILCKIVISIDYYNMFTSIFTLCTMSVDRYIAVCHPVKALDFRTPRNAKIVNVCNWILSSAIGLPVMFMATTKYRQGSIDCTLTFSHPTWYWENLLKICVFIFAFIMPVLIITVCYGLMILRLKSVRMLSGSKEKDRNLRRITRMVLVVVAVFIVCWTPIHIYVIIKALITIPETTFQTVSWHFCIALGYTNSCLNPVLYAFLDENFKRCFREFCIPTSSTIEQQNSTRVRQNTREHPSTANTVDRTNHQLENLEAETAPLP
The species entered for a further test is Cavia porcellus. Nature of the test: In vitro inhibitory concentration against electrically induced twitches in guinea pig ileum. Type of test: functional.
The species named for a further test is Mus musculus. Briefly: In vitro inhibitory concentration against electrically induced twitches in mouse vas deferens. Type of test: functional.

pIC50, pKi: −log10 of the molar value. Where a SMILES comes first, the peptide text is derived from it. [ ]: non-standard residue; d: D form. The star is where a group is joined. Dmt = Cc1cc(O)cc(C)c1C[C@H](N)C(=O)O; NHPhenethyl = c1ccc(CCN*)cc1; NHBn = c1ccc(CN*)cc1; NHPh = c1ccc(N*)cc1; NHtBu = CC(C)(C)N* Bounds are passed on as bounds.

Sequence of Opioid receptors; mu & delta (Rattus norvegicus) (P33533 whole entry, looked up): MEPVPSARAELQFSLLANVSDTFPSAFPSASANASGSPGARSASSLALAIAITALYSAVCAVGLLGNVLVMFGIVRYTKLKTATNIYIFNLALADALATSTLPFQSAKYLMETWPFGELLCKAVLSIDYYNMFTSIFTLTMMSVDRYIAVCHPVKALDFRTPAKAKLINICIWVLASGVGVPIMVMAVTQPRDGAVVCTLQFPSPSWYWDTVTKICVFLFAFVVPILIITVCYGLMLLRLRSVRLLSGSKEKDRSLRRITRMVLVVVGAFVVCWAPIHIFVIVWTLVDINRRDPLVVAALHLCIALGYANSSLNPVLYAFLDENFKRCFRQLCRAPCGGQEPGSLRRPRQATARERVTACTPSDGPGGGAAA
Sequence of Opioid receptors; mu & delta (Rattus norvegicus) (P33535 whole entry, looked up): as the sequence (P33535 whole entry) above
Sequence of Delta-type opioid receptor (P33533 whole entry): as the sequence (P33533 whole entry, looked up) above

Consider `N[C@@H](Cc1ccc(O)cc1)C(=O)N1CCC[C@H]1C(=O)N[C@@H](Cc1ccccc1)C(=O)Nc1ccncc1`, for which the Ratio in test [1] was determined as 521. Besides, the pKi – broadly, the negative decadic logarithm of the Ki, by convention in mol/L – is 4.60 in test [2] and 7.32 on Mu-type opioid receptor.
On to `Cc1cc(O)cc(C)c1C[C@H](N)C(=O)N1CCC[C@H]1C(=O)N[C@@H](Cc1ccccc1)C(N)=O` (H-[Dmt]-Pro-Phe-NH2), for which the pIC50 (commonly the IC50 on a negative log10 scale, so that one unit is a factor of ten) in the test filed under Cavia porcellus was 8.63; in the test listed under Mus musculus, 6.95. In test [1], the Ratio was 443. Further, the pKi is 7.27 in test [2] and 9.92 at Mu-type opioid receptor.
For `NC(=O)[C@H](Cc1ccccc1)NC(=O)[C@@H]1CCCN1C(=O)[C@@H](N)Cc1ccc(O)cc1` (H-Tyr-Pro-Phe-NH2), the Ratio in test [1] is 343. Also, the pKi is 4.80 in test [2] and 7.33 on Mu-type opioid receptor.
Turning to `Cc1cc(O)cc(C)c1C[C@H](N)C(=O)N1CCC[C@H]1C(=O)N[C@@H](Cc1ccccc1)C(=O)Nc1cccc2cccnc12`, the results for the pIC50 in the test filed under Cavia porcellus and in the test filed under Mus musculus were 6.35 and 5.53, respectively. Besides, the pKi in test [2] was 7.48; on Mu-type opioid receptor, 9.31.
Consider `Cc1cc(O)cc(C)c1C[C@H](N)C(=O)N1CCC[C@H]1C(=O)N[C@@H](Cc1ccccc1)C(=O)Nc1cccc2ncccc12`, for which the pIC50 is 9.59 in the test filed under Cavia porcellus and 9.21 in the test listed under Mus musculus. Besides, the Ratio in test [1] came out at 283. The pKi was 7.52 in test [2] and 9.96 at Mu-type opioid receptor.
Regarding `N[C@@H](Cc1ccc(O)cc1)C(=O)N1CCC[C@H]1C(=O)N[C@@H](Cc1ccccc1)C(=O)NC12C[C@H]3C[C@@H](C1)C[C@@H](C2)C3`, in test [1], the Ratio is 265. Moreover, the pKi in test [2] is 5.20; on Mu-type opioid receptor it was 7.63.
On to `N[C@@H](Cc1ccc(O)cc1)C(=O)N1CCC[C@H]1C(=O)N[C@@H](Cc1ccccc1)C(=O)Nc1cnc2ccccc2c1`, for which the Ratio in test [1] was found to be 333. Further, the pKi is 4.73 in test [2] and 7.25 at Mu-type opioid receptor.
The matching figures for `N[C@@H](Cc1ccc(O)cc1)C(=O)N1CCC[C@H]1C(=O)N[C@@H](Cc1ccccc1)C(=O)NCCc1ccccc1` (H-Tyr-Pro-Phe-NHPhenethyl): 324, 5.37 and 7.88.
Taken in the same sequence, the figures for `N[C@@H](Cc1ccc(O)cc1)C(=O)N1CCC[C@H]1C(=O)N[C@@H](Cc1ccccc1)C(=O)Nc1cccc2cccnc12` were 68, 4.77 and 6.60.
Taken in the same sequence, the figures for `N[C@@H](Cc1ccc(O)cc1)C(=O)N1CCC[C@H]1C(=O)N[C@@H](Cc1ccccc1)C(=O)Nc1cccc2cnccc12` were 57, 5.46 and 7.21.
`N[C@@H](Cc1ccc(O)cc1)C(=O)N1CCC[C@H]1C(=O)N[C@@H](Cc1ccccc1)C(=O)Nc1cccc2ncccc12`: the Ratio in test [1] worked out at 3110. Besides, the values for the pKi (in test [2]; on Mu-type opioid receptor) were 4.90 and 8.39, respectively.
Consider `Cc1cc(O)cc(C)c1C[C@H](N)C(=O)N1CCC[C@H]1C(=O)N[C@@H](Cc1ccccc1)C(=O)Nc1ccccn1`, for which the pIC50 was 7.82 in the test listed under Cavia porcellus and under 5.00 in the test filed under Mus musculus. In addition, the pKi in test [2] was 6.80; at Mu-type opioid receptor, 9.89.
Take `Cc1cc(O)cc(C)c1C[C@H](N)C(=O)N1CCC[C@H]1C(=O)N[C@@H](Cc1ccccc1)C(=O)N[C@@H](Cc1ccccc1)C(N)=O`: the pIC50 in the test filed under Cavia porcellus was 10.15; in the test filed under Mus musculus it was 8.73. Besides, the Ratio in test [1] stood at 188. For the same molecule, the pKi in test [2] is 7.55; at Mu-type opioid receptor, 9.82.
As to `N[C@@H](Cc1ccc(O)cc1)C(=O)N1CCC[C@H]1C(=O)N[C@@H](Cc1ccccc1)C(=O)Nc1ccc2ncccc2c1`, the Ratio in test [1] was 136. The pKi in test [2] is 5.01; at Mu-type opioid receptor it was 7.14.
The matching figures for `N[C@@H](Cc1ccc(O)cc1)C(=O)N1CCC[C@H]1C(=O)N[C@@H](Cc1ccccc1)C(=O)NC1C2C[C@H]3C[C@@H](C2)C[C@@H]1C3` (some centres undefined): 844, 5.25 and 8.18.
Consider `Cc1cc(O)cc(C)c1C[C@H](N)C(=O)N1CCC[C@H]1C(=O)N[C@@H](Cc1ccccc1)C(=O)Nc1cnc2ccccc2c1`, for which the pIC50 in the test filed under Cavia porcellus is 8.04; in the test filed under Mus musculus it was under 5.00. In addition, in test [1], the Ratio came to 577. Also, the results for the pKi (in test [2]; at Mu-type opioid receptor) were 6.72 and 9.48, respectively.
In the case of `N[C@@H](Cc1ccc(O)cc1)C(=O)N1CCC[C@H]1C(=O)N[C@@H](Cc1ccccc1)C(=O)Nc1cccnc1`, the Ratio in test [1] amounted to 400. Besides, the pKi in test [2] is 4.71; at Mu-type opioid receptor, 7.31.
Take `Cc1cc(O)cc(C)c1C[C@H](N)C(=O)N1CCC[C@H]1C(=O)N[C@@H](Cc1ccccc1)C(=O)Nc1ccc2ncccc2c1`: the pIC50 in the test listed under Cavia porcellus is 8.21; in the test filed under Mus musculus it was under 5.00. For the same molecule, the pKi in test [2] was 7.33; on Mu-type opioid receptor, 9.66.
For `Cc1cc(O)cc(C)c1C[C@H](N)C(=O)N1CCC[C@H]1C(=O)N[C@@H](Cc1ccccc1)C(=O)Nc1ccccc1` (H-[Dmt]-Pro-Phe-NHPh), the values for the pIC50 in the test filed under Cavia porcellus and in the test listed under Mus musculus were 7.42 and under 5.00, respectively. Moreover, the pKi in test [2] was 7.69; on Mu-type opioid receptor, 8.95.
Turning to `Cc1cc(O)cc(C)c1C[C@H](N)C(=O)N1CCC[C@H]1C(=O)N[C@@H](Cc1ccccc1)C(=O)NCCc1ccccc1` (H-[Dmt]-Pro-Phe-NHPhenethyl), the figures for the pIC50 in the test filed under Cavia porcellus and in the test listed under Mus musculus were 8.30 and under 5.00, respectively. Also, the Ratio in test [1] turned out to be 35. Further, the pKi is 7.74 in test [2] and 9.29 on Mu-type opioid receptor.
On to `N[C@@H](Cc1ccc(O)cc1)C(=O)N1CCC[C@H]1C(=O)N[C@@H](Cc1ccccc1)C(=O)NCc1ccccc1` (H-Tyr-Pro-Phe-NHBn), for which the Ratio in test [1] came out at 80. In addition, the pKi in test [2] was 5.76; on Mu-type opioid receptor, 7.67.
Turning to `N[C@@H](Cc1ccc(O)cc1)C(=O)N1CCC[C@H]1C(=O)N[C@@H](Cc1ccccc1)C(=O)Nc1ccccn1`, the Ratio in test [1] came to 742. The pKi is 4.71 in test [2] and 7.58 on Mu-type opioid receptor.
`Cc1cc(O)cc(C)c1C[C@H](N)C(=O)N1CCC[C@H]1C(=O)N[C@@H](Cc1ccccc1)C(=O)Nc1cccc2ccccc12`: the negative logarithm of the IC50 (pIC50) in the test listed under Cavia porcellus was 9.31; in the test filed under Mus musculus, 8.26. Further, the Ratio in test [1] was determined as 68. Besides, the pKi in test [2] is 7.70.
As to `N[C@@H](Cc1ccc(O)cc1)C(=O)N1CCC[C@H]1C(=O)N[C@@H](Cc1ccccc1)C(=O)NC1CCCCC1`, in test [1], the Ratio came out at 1400. For the same molecule, the pKi in test [2] was 5.09; on Mu-type opioid receptor, 8.24.
For the molecule `Cc1cc(O)cc(C)c1C[C@H](N)C(=O)N1CCC[C@H]1C(=O)N[C@@H](Cc1ccccc1)C(=O)Nc1ccncc1`, the pIC50 in the test filed under Cavia porcellus is 7.93; in the test filed under Mus musculus, 5.00. Also, the pKi is 7.28 in test [2] and 9.44 on Mu-type opioid receptor.
In the case of `Cc1cc(O)cc(C)c1C[C@H](N)C(=O)N1CCC[C@H]1C(=O)N[C@@H](Cc1ccccc1)C(=O)NCc1ccccc1` (H-[Dmt]-Pro-Phe-NHBn), the results for the pIC50 in the test filed under Cavia porcellus and in the test filed under Mus musculus were 7.66 and under 5.00, respectively. In addition, the negative-log Ki (pKi) in test [2] is 7.86; at Mu-type opioid receptor, 9.28.
For `N[C@@H](Cc1ccc(O)cc1)C(=O)N1CCC[C@H]1C(=O)N[C@@H](Cc1ccccc1)C(=O)Nc1ccccc1` (H-Tyr-Pro-Phe-NHPh), the Ratio in test [1] is 692. The results for the pKi (in test [2]; at Mu-type opioid receptor) were 4.64 and 7.47, respectively.
The matching figures for `CC(C)(C)NC(=O)[C@H](Cc1ccccc1)NC(=O)[C@@H]1CCCN1C(=O)[C@@H](N)Cc1ccc(O)cc1` (H-Tyr-Pro-Phe-NHtBu): 680, 4.88 and 7.71.
For `Cc1cc(O)cc(C)c1C[C@H](N)C(=O)N1CCC[C@H]1C(=O)N[C@@H](Cc1ccccc1)C(=O)Nc1cccc2cnccc12`, the pIC50 was 9.03 in the test listed under Cavia porcellus and under 5.00 in the test filed under Mus musculus. Besides, the pKi in test [2] was 7.01; on Mu-type opioid receptor, 9.72.
Taken in the same sequence, the figures for `Cc1cc(O)cc(C)c1C[C@H](N)C(=O)N1CCC[C@H]1C(=O)N[C@@H](Cc1ccccc1)C(=O)Nc1cccnc1` were 7.14, under 5.00, 6.54 and 9.77.
Take `N[C@@H](Cc1ccc(O)cc1)C(=O)N1CCC[C@H]1C(=O)N[C@@H](Cc1ccccc1)C(=O)Nc1cccc2ccccc12`: the Ratio in test [1] was 1510. Also, the values for the pKi (in test [2]; at Mu-type opioid receptor) were 5.44 and 8.62, respectively.
Regarding `NC(=O)[C@H](Cc1ccccc1)NC(=O)[C@H](Cc1ccccc1)NC(=O)[C@@H]1CCCN1C(=O)[C@@H](N)Cc1ccc(O)cc1` [ENDOMORPHIN 2], the pIC50 is 8.24 in the test filed under Cavia porcellus and 6.46 in the test listed under Mus musculus.

The values are drawn from ChEMBL document CHEMBL1148353, “Development of potent bifunctional endomorphin-2 analogues with mixed mu-/delta-opioid agonist and delta-opioid antagonist properties” (J Med Chem, 2004).
